Key:
CDK2/Cyclin A = CDK2/Cyclin A (Homo sapiens, UniProt P24941); test: Inhibition of CDK2/Cyclin A Retinoblastoma Kinase Activity; assay type: biochemical; settings: 0.03 μM compound, Table 4
How it was run: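 CDK2 (10 or 19 nM), insect-cell expressed, gel-filtration purified with truncated cyclin A; Rb fragment substrate; 25 μM ATP; 10 mM HEPES pH 7.4, 10 mM MgCl2; 30° C, 60 or 75 min; EDTA stop; phosphocellulose/nitrocellulose capture, phosphorimager. % inhibition vs DMSO control, no-enzyme background subtracted.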

[1] = biological target: human CDK4 and genetically truncated (1-264) cyclin D3 (Homo sapiens, UniProt P11802); test: Inhibition of CDK4/Cyclin D Retinoblastoma Kinase Activity; assay type: biochemical; settings: 0.03 μM compound, Table 4
How it was run: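 The enzyme complex (5 nM), expressed in co-infected insect cells, was incubated with recombinant Rb fragment, 25 μM radiolabelled ATP and 2% DMSO at 30 °C. Reactions were stopped with EDTA after 20 minutes, or 60 minutes for tight-binding inhibitors. Apparent Ki values came from competitive inhibition fits.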

HCT-116 cell line = test: Inhibition of cell growth, tetrazolium salt (MTT) assay; assay type: cell-based; settings: HCT-116, Table 4; for HCT-116 % Inhibition at 0.1 μM: 0.1 μM compound; for HCT-116 % Inhibition at 0.25 μM: 0.25 μM compound
How it was run: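 Growth inhibition is scored relative to cells receiving only 0.5% (v/v) DMSO. Plated cells rest 4 h, then take compound for three to five days at 37° C; MTT reduction to formazan is read at 540 nm.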

Sequence of human CDK4 and genetically truncated (1-264) cyclin D3 (P11802 whole entry, the tested form may be a part): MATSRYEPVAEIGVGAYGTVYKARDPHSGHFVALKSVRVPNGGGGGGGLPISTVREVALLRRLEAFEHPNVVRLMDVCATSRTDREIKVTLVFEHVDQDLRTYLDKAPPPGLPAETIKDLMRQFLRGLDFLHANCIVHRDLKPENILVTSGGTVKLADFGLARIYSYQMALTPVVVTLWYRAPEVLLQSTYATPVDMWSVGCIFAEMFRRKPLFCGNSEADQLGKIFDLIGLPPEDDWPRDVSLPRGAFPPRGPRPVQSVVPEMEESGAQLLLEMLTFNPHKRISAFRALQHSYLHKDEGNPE
Sequence of human CDK4 and genetically truncated (1-264) cyclin D3 (P30281 1-264 partner): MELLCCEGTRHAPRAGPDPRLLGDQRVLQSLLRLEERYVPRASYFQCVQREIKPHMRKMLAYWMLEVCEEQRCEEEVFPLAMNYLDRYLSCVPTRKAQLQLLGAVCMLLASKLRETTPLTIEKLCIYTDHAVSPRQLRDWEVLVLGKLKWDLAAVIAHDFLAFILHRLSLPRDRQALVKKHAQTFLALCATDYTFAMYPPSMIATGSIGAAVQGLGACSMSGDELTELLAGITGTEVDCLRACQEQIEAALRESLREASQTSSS

| CDK2 % Inhibition at 0.03 μM (CDK2/Cyclin A) [%] | CDK4 % Inhibition at 0.03 μM [1] [%] | CDK2 % Inhibition at 0.03 μM (CDK2/Cyclin A; 0.03 µM) [%] | CDK4 % Inhibition at 0.03 μM ([1]; 0.03 µM) [%] | Compound | HCT-116 % Inhibition at 0.1 μM (HCT-116 cell line) [%] | HCT-116 % Inhibition at 0.25 μM (HCT-116 cell line) [%] | HCT-116 % Inhibition at 0.25 μM (HCT-116 cell line; 0.25 µM) [%] |
| --- | --- | --- | --- | --- | --- | --- | --- |
| 13 | 52 | – | – | Nc1nc(NC2CCN(C(=O)c3ccccc3)CC2)sc1C(=O)c1c(F)cccc1F [Example Q9] | 0 | 36 | – |
| 23 | 57 | – | – | Nc1nc(NC2CCN(C(=O)c3ccccc3Br)CC2)sc1C(=O)c1c(F)cccc1F [Example Q10] | 1 | 42 | – |
| 30 | 57 | – | – | Nc1nc(NC2CCN(C(=O)c3ccccc3F)CC2)sc1C(=O)c1c(F)cccc1F [Example Q11] | 7 | 43 | – |
| −20 | 22 | – | – | Nc1nc(NC2CCN(C(=O)c3c(F)cccc3F)CC2)sc1C(=O)c1c(F)cccc1F [Example Q12] | 3 | 46 | – |
| 13 | 48 | – | – | Nc1nc(NC2CCN(C(=O)c3ccccc3Cl)CC2)sc1C(=O)c1c(F)cccc1F [Example Q13] | 5 | 43 | – |
| 59 | 80 | – | – | CC(=O)Oc1ccccc1C(=O)N1CCC(Nc2nc(N)c(C(=O)c3c(F)cccc3F)s2)CC1 [Example Q14] | 15 | 45 | – |
| 25 | 52 | – | – | COc1ccccc1C(=O)N1CCC(Nc2nc(N)c(C(=O)c3c(F)cccc3F)s2)CC1 [Example Q15] | 9 | 45 | – |
| −12 | 19 | – | – | Nc1nc(NC2CCN(C(=O)c3ccccc3C(F)(F)F)CC2)sc1C(=O)c1c(F)cccc1F [Example Q16] | 11 | 50 | – |
| −11 | 45 | – | – | Cc1ccccc1C(=O)N1CCC(Nc2nc(N)c(C(=O)c3c(F)cccc3F)s2)CC1 [Example Q17] | 2 | 34 | – |
| 44 | 73 | – | – | Nc1nc(NC2CCN(C(=O)c3cccc(Br)c3)CC2)sc1C(=O)c1c(F)cccc1F [Example Q18] | 59 | 92 | – |
| 21 | 59 | – | – | Nc1nc(NC2CCN(C(=O)c3cccc(Cl)c3)CC2)sc1C(=O)c1c(F)cccc1F [Example Q19] | 32 | 83 | – |
| 33 | 74 | – | – | Nc1nc(NC2CCN(C(=O)c3ccc(Cl)c(Cl)c3)CC2)sc1C(=O)c1c(F)cccc1F [Example Q20] | 28 | 69 | – |
| −23 | 14 | – | – | COc1ccc(C(=O)N2CCC(Nc3nc(N)c(C(=O)c4c(F)cccc4F)s3)CC2)cc1OC [Example Q21] | 16 | 51 | – |
| 24 | 73 | – | – | COc1cc(C(=O)N2CCC(Nc3nc(N)c(C(=O)c4c(F)cccc4F)s3)CC2)cc(OC)c1OC [Example Q22] | 16 | 48 | – |
| 20 | 56 | – | – | COc1cc(OC)cc(C(=O)N2CCC(Nc3nc(N)c(C(=O)c4c(F)cccc4F)s3)CC2)c1 [Example Q23] | 10 | 42 | – |
| 31 | 65 | – | – | Nc1nc(NC2CCN(C(=O)c3cccc(C(F)(F)F)c3)CC2)sc1C(=O)c1c(F)cccc1F [Example Q24] | 36 | 71 | – |
| 30 | 60 | – | – | Cc1cccc(C(=O)N2CCC(Nc3nc(N)c(C(=O)c4c(F)cccc4F)s3)CC2)c1 [Example Q25] | 31 | 85 | – |
| 18 | 60 | – | – | Nc1nc(NC2CCN(C(=O)c3ccc(F)cc3)CC2)sc1C(=O)c1c(F)cccc1F [Example Q26] | 3 | 42 | – |

| CDK2 % Inhibition at 0.03 μM (CDK2/Cyclin A) [%] | CDK4 % Inhibition at 0.03 μM [1] [%] | CDK2 % Inhibition at 0.03 μM (CDK2/Cyclin A; 0.03 µM) [%] | CDK4 % Inhibition at 0.03 μM ([1]; 0.03 µM) [%] | Compound | HCT-116 % Inhibition at 0.1 μM (HCT-116 cell line) [%] | HCT-116 % Inhibition at 0.25 μM (HCT-116 cell line) [%] | HCT-116 % Inhibition at 0.25 μM (HCT-116 cell line; 0.25 µM) [%] |
| --- | --- | --- | --- | --- | --- | --- | --- |
| 32 | 76 | – | – | Nc1nc(NC2CCN(C(=O)c3ccc(Cl)cc3)CC2)sc1C(=O)c1c(F)cccc1F [Example Q27] | 4 | 40 | – |
| 53 | 82 | – | – | COc1ccc(C(=O)N2CCC(Nc3nc(N)c(C(=O)c4c(F)cccc4F)s3)CC2)cc1 [Example Q28] | 6 | 41 | – |
| 21 | 60 | – | – | CCCCOc1ccc(C(=O)N2CCC(Nc3nc(N)c(C(=O)c4c(F)cccc4F)s3)CC2)cc1 [Example Q29] | 7 | 50 | – |
| – | – | −4 | 42 | CCCCCCOc1ccc(C(=O)N2CCC(Nc3nc(N)c(C(=O)c4c(F)cccc4F)s3)CC2)cc1 [Example Q30] | 8 | – | 47 |
| – | – | −2 | 35 | CCCCCCOc1ccc(C(=O)N2CCC(Nc3nc(N)c(C(=O)c4c(F)cccc4F)s3)CC2)cc1 [Example Q31] | 8 | – | 41 |
| −11 | 15 | – | – | Nc1nc(NC2CCN(C(=O)c3ccc(-c4ccccc4)cc3)CC2)sc1C(=O)c1c(F)cccc1F [Example Q32] | 13 | 54 | – |
| 23 | 65 | – | – | Nc1nc(NC2CCN(C(=O)c3ccc(C(F)(F)F)cc3)CC2)sc1C(=O)c1c(F)cccc1F [Example Q33] | 0 | 16 | – |
| 28 | 56 | – | – | CC(C)(C)c1ccc(C(=O)N2CCC(Nc3nc(N)c(C(=O)c4c(F)cccc4F)s3)CC2)cc1 [Example Q34] | 1 | 27 | – |
| 35 | 64 | – | – | Cc1ccc(C(=O)N2CCC(Nc3nc(N)c(C(=O)c4c(F)cccc4F)s3)CC2)cc1 [Example Q35] | 3 | 21 | – |
| 16 | 45 | – | – | CCCCc1ccc(C(=O)N2CCC(Nc3nc(N)c(C(=O)c4c(F)cccc4F)s3)CC2)cc1 [Example Q36] | 0.49 | 31 | – |
| 12 | 45 | – | – | CCCCCc1ccc(C(=O)N2CCC(Nc3nc(N)c(C(=O)c4c(F)cccc4F)s3)CC2)cc1 [Example Q37] | 0 | 31 | – |
| −12 | 16 | – | – | COC(=O)C(=O)N1CCC(Nc2nc(N)c(C(=O)c3c(F)cccc3F)s2)CC1 [Example Q38] | 0 | 21 | – |
| −13 | 17 | – | – | CCOC(=O)C(=O)N1CCC(Nc2nc(N)c(C(=O)c3c(F)cccc3F)s2)CC1 [Example Q39] | 0 | 25 | – |
| −5 | 7 | – | – | CC(=O)OC(C(=O)N1CCC(Nc2nc(N)c(C(=O)c3c(F)cccc3F)s2)CC1)c1ccccc1 (centres unmarked) [Example Q40] | 0 | 20 | – |
| 24 | 36 | – | – | Nc1nc(NC2CCN(C(=O)COc3ccccc3)CC2)sc1C(=O)c1c(F)cccc1F [Example Q41] | 3 | 15 | – |
| −4 | 20 | – | – | COCC(=O)N1CCC(Nc2nc(N)c(C(=O)c3c(F)cccc3F)s2)CC1 [Example Q42] | 3 | 30 | – |
| 16 | 30 | – | – | Nc1nc(NC2CCN(C(=O)Cc3ccccc3)CC2)sc1C(=O)c1c(F)cccc1F [Example Q43] | 0 | 24 | – |
